Assay: RiboGreen assay of siRNA encapsulation efficiency, in vitro formulations of Lipid-Based Particles
Format: physicochemical
Conditions: in vitro formulation b: Cationic lipid/PEG-cholesterol/DSPC/Chol 45/10/15/30 wt %, lipid:siRNA 25:1
In short: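 siRNA in pH 4.0 citrate buffer (20 mM, 0.2 mg/mL) mixed at 60 °C with an ethanolic lipid blend (cationic lipid, cholesterol, non-cationic lipid, PEG-lipid), then diluted with PBS pH 7.4. Encapsulation efficiency from RiboGreen fluorescence (480/520 nm) with siRNA released by ethanol, Triton X-100 or phenol/chloroform.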

## CCCCC/C=C\C/C=C\CCCCCCCCOCC(CCN1CCCC1)OCCCCCCCC/C=C\C/C=C\CCCCC (stereo not shown) [Example 24, 1-{3,4-bis[(9Z,12Z)-octadeca-9,12-dienyloxy]butyl}pyrrolidine]
  % Encapsulation Efficiency: 97.0%

— patent US20100055169A1, “CATIONIC LIPIDS AND USES THEREOF” (ABBOTT LABORATORIES, priority 2008, published 2010)
